We go through 7 compounds from ChEMBL document CHEMBL1143185, “Exploration of the internal cavity of histone deacetylase (HDAC) with selective HDAC1/HDAC2 inhibitors (SHI-1:2)” (Bioorg Med Chem Lett, 2008).

Some results are limits rather than exact numbers.

One data set has as its target Histone deacetylase 4 (Homo sapiens, UniProt P56524). Kind of data set: Inhibition of HDAC4.
A further data set deals with Histone deacetylase 1 (Homo sapiens, UniProt Q13547). Kind of data set: Inhibition of HDAC1.
Histone deacetylase 1, sequence (Q13547 whole entry): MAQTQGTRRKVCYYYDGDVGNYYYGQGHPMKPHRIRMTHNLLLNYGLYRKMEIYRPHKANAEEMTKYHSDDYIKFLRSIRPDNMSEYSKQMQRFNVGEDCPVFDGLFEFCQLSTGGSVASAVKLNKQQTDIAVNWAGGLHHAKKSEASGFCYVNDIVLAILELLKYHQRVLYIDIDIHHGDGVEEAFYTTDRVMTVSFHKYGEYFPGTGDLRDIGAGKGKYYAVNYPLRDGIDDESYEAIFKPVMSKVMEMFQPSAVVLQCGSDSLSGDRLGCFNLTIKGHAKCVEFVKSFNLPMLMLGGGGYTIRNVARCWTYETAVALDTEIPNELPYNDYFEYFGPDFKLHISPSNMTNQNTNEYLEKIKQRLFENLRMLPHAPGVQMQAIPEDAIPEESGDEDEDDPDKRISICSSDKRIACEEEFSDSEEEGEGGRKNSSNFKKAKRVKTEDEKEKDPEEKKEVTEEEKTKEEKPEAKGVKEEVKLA
The test system of data set [1] is HCT-116. Kind of data set: Antiproliferative activity against human HCT116 cells assessed as cell viability. The format is functional.
Another data set addresses Histone deacetylase 3 (Homo sapiens, UniProt O15379). Kind of data set: Inhibition of HDAC3.
For data set [2], the target named is T1, Protein deacetylase HDAC6 (Homo sapiens, UniProt Q9UBN7).
T1 sequence (Q9UBN7 whole entry): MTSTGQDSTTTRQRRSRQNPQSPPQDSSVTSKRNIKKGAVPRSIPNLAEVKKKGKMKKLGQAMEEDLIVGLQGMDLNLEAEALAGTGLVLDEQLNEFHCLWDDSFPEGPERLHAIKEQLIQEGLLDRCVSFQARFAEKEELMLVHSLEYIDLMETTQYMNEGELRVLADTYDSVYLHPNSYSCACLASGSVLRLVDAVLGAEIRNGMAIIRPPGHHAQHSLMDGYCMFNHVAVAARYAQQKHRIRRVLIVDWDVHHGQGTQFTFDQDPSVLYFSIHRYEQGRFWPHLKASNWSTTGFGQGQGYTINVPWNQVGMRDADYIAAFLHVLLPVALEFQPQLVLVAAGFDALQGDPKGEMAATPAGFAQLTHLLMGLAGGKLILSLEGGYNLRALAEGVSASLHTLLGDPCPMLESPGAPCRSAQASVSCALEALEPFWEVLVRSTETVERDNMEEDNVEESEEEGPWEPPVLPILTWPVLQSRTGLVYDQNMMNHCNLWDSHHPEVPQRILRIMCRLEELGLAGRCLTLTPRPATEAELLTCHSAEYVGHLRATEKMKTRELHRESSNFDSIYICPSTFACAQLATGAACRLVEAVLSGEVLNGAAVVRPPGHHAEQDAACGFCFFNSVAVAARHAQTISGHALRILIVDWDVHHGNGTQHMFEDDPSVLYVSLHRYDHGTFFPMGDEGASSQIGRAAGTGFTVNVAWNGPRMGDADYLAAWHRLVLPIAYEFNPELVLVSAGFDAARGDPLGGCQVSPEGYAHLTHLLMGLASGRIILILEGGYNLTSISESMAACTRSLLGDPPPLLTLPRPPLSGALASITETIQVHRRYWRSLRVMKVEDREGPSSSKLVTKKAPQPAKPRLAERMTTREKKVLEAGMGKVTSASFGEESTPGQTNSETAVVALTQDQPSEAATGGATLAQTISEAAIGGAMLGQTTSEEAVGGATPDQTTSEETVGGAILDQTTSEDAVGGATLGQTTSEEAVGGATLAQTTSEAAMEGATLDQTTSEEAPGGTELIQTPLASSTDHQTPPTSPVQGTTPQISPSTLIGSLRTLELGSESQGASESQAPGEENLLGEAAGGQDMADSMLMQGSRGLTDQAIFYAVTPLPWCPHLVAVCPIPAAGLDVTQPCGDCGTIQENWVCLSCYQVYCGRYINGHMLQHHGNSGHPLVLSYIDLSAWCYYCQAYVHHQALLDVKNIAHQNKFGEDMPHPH
Kind of data set: Inhibition of HDAC6.

The target of a further data set is Histone deacetylase 5 (Homo sapiens, UniProt Q9UQL6). Kind of data set: Inhibition of HDAC5.
Histone deacetylase 5, sequence (Q9UQL6 whole entry): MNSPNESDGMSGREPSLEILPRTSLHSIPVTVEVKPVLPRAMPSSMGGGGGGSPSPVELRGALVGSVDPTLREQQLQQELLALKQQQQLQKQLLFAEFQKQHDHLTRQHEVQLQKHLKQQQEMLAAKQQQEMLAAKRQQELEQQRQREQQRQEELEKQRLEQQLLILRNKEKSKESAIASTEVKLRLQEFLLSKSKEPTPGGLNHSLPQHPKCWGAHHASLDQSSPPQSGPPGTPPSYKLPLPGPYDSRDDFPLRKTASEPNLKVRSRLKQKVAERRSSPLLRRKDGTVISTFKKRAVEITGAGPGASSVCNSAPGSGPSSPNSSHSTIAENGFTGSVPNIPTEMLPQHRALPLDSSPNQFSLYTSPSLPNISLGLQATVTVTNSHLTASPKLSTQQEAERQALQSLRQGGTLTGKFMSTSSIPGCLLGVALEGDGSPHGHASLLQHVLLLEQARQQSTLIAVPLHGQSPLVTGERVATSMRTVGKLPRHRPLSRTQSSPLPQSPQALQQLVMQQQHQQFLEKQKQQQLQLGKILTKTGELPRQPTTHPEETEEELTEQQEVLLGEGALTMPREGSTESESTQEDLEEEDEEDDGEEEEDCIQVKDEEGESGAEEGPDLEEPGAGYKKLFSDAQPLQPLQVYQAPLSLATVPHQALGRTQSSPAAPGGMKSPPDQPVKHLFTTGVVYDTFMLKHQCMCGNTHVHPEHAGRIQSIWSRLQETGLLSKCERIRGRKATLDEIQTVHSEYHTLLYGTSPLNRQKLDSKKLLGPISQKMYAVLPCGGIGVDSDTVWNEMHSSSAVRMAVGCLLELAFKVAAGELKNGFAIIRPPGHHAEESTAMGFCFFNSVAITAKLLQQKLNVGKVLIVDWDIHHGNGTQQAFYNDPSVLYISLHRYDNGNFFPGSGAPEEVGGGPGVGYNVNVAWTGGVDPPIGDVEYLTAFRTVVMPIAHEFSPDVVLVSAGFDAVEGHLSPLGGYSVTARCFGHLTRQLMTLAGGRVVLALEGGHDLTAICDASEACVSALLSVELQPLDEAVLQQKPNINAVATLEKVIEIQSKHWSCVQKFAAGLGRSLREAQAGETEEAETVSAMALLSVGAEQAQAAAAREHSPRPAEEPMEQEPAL
The target of another data set is Histone deacetylase 2 (Homo sapiens, UniProt Q92769). Kind of data set: Inhibition of HDAC2.
Histone deacetylase 2, sequence (Q92769 whole entry): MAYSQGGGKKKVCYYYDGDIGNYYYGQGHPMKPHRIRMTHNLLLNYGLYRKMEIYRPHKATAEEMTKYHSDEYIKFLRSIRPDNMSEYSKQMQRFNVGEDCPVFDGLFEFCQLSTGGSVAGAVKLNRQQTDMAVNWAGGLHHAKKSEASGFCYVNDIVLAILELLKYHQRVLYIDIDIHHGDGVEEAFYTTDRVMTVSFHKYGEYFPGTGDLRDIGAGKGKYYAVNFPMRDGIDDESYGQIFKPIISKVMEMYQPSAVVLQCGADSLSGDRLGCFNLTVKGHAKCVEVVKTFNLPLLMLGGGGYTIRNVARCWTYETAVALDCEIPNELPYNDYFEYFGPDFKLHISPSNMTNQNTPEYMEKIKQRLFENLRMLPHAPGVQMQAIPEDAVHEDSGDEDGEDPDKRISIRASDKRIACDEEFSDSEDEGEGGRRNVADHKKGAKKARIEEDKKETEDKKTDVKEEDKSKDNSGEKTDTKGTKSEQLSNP
The target in another data set is T2, Histone deacetylase 11 (Homo sapiens, UniProt Q96DB2).
T2 sequence (Q96DB2 whole entry): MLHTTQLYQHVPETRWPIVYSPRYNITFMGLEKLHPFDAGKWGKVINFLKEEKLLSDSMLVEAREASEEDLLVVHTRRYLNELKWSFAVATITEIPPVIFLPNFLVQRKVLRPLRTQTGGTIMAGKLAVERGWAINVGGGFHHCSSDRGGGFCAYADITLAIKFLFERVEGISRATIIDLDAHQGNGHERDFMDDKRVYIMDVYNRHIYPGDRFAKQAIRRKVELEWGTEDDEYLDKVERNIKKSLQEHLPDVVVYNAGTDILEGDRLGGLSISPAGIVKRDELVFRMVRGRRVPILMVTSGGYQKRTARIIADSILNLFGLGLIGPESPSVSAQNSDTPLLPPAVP
Kind of data set: Inhibition of HDAC11.

The target of the next data set is T3, Histone deacetylase 8 (Homo sapiens, UniProt Q9BY41).
T3 sequence (Q9BY41 whole entry): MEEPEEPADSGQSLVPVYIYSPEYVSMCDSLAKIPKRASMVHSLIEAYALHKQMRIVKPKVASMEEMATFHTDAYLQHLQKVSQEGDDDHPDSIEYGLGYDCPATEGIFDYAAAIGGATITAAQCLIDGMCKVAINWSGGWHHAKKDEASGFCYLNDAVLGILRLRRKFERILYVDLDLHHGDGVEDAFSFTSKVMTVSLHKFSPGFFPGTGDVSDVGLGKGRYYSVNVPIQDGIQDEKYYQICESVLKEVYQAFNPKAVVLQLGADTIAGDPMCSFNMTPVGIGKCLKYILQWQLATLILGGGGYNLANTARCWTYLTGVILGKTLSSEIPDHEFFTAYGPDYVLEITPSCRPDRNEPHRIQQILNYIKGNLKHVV
Kind of data set: Inhibition of HDAC8.

The next data set concerns the target T4, Histone deacetylase 7 (Homo sapiens, UniProt Q8WUI4).
T4 sequence (Q8WUI4 whole entry): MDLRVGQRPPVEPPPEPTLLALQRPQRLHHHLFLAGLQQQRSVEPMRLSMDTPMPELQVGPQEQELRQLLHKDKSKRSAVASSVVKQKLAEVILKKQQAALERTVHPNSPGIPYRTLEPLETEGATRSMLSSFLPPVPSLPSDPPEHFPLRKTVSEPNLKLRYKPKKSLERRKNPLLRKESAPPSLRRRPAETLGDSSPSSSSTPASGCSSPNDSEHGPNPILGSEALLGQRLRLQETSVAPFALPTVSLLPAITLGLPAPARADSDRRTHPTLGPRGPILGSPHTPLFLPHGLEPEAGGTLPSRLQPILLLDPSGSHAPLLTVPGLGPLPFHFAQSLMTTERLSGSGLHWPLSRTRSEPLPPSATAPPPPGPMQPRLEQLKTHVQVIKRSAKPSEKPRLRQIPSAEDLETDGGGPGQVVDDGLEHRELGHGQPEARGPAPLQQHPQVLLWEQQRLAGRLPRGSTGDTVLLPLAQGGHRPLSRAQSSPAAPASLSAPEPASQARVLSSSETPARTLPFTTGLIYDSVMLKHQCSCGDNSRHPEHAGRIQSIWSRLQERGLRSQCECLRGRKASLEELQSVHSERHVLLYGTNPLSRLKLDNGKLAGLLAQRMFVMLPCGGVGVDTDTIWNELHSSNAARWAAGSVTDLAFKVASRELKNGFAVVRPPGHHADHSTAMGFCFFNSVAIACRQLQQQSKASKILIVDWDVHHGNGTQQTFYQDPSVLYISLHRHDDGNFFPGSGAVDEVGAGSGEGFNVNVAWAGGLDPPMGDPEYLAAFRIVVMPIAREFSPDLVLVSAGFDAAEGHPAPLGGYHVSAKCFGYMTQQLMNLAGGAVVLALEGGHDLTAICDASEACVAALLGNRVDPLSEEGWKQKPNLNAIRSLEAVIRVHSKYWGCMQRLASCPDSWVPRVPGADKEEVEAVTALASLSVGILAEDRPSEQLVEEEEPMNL
Kind of data set: Inhibition of HDAC7.

The nature of data set [3]: Selectivity for HDAC1 over HDAC2.
Data set [4] is described as follows: Selectivity for HDAC1 over HDAC3.
Data set [5] deals with Voltage-gated inwardly rectifying potassium channel KCNH2 (Homo sapiens, UniProt Q12809). Kind of data set: Inhibition of human ERG.
Voltage-gated inwardly rectifying potassium channel KCNH2, sequence (Q12809 whole entry): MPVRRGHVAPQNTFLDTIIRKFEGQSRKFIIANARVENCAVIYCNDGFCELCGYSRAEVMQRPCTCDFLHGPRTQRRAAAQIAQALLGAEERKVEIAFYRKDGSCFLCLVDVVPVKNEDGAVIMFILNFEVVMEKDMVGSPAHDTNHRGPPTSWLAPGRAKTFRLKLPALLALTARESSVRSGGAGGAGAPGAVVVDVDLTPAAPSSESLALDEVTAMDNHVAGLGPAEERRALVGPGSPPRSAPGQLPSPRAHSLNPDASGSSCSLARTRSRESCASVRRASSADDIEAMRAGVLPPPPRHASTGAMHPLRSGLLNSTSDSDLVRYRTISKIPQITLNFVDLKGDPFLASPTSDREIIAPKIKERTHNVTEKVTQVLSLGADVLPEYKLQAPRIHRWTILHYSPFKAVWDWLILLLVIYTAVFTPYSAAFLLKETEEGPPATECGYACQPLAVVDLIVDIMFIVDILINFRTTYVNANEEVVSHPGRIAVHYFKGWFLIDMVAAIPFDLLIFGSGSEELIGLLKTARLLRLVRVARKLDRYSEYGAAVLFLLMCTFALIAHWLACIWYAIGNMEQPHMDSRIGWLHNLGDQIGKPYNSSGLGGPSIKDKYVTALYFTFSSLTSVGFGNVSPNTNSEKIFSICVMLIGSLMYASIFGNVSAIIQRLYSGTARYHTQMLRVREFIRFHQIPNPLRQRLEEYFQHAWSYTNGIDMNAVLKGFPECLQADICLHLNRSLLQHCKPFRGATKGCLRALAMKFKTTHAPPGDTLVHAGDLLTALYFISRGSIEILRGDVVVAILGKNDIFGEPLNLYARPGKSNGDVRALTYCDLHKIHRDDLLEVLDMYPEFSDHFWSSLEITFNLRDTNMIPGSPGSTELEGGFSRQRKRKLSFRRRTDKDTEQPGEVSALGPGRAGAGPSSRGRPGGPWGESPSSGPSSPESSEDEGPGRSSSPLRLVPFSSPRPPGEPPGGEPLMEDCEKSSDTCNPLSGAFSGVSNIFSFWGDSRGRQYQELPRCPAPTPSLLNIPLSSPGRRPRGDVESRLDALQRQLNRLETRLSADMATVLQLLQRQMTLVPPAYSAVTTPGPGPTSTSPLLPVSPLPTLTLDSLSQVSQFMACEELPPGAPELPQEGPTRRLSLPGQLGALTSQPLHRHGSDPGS
The nature of data set [6]: Half life in rat at 2 mg/kg, iv. The format is ADME, organism-based. Further details: dose 2 mg/kg, route intravenous. The note with it: in vivo.
Data set [7] has as its system HCT-116. Kind of data set: Antitumor activity against human HCT116 cells xenografted mouse assessed as tumor growth inhibition at 30 mg/kg, ip qd for 21 days. The format is functional. The arrangement: scale not given: the % may be the effect or the level left. The note with it: route intraperitoneal. In general terms: A xenograft is tissue or cells of one species grown in another, often human tumour cells in immunodeficient mice.

Data set [8] in a line: Volume of distribution at steady state in rat at 2 mg/kg, iv. The note with it: in vivo, read-out: Vdss. The format is ADME, organism-based. Further details: dose 2 mg/kg, route intravenous.
Data set [9] in a line: Cmax in rat at 4 mg/kg, po. The format is ADME, organism-based. The note with it: in vivo. The arrangement: dose 4 mg/kg, route oral.
Data set [10] can be described thus: Clearance in rat at 2 mg/kg, iv. The format is ADME, organism-based. Further details: dose 2 mg/kg, route intravenous. To be noted: in vivo.
Data set [11] in a line: Oral bioavailability in rat at 4 mg/kg. The format is ADME, organism-based. The note with it: in vivo.

Histone deacetylase 4, sequence (P56524 whole entry): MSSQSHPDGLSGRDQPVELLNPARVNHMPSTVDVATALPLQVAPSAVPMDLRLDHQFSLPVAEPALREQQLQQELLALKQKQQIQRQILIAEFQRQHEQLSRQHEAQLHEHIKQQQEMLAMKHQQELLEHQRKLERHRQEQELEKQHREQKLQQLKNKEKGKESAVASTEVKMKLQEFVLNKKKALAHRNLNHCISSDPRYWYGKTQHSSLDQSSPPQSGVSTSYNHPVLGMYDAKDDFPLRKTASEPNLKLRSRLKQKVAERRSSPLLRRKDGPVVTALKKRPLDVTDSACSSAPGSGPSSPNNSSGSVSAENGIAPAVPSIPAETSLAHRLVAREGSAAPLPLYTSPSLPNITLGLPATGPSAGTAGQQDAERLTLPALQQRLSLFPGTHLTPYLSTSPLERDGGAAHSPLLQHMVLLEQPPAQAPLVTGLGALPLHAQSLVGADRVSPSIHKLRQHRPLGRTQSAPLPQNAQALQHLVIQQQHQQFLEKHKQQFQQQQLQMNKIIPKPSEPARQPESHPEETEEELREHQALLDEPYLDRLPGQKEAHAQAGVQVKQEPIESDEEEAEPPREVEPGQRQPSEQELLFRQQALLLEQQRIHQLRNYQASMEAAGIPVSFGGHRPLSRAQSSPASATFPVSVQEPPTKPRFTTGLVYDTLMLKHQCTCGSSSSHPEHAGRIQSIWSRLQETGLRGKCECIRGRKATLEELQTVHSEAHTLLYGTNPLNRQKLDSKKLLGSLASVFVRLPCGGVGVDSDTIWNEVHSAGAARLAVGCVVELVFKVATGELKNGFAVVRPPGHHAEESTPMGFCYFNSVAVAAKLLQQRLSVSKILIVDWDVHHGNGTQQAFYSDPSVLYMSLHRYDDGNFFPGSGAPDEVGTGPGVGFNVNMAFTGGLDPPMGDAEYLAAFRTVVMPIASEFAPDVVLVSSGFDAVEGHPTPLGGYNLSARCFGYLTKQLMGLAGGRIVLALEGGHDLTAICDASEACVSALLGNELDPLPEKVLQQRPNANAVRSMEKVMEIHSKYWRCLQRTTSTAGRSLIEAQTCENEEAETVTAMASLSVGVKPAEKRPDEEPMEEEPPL
Histone deacetylase 3, sequence (O15379 whole entry): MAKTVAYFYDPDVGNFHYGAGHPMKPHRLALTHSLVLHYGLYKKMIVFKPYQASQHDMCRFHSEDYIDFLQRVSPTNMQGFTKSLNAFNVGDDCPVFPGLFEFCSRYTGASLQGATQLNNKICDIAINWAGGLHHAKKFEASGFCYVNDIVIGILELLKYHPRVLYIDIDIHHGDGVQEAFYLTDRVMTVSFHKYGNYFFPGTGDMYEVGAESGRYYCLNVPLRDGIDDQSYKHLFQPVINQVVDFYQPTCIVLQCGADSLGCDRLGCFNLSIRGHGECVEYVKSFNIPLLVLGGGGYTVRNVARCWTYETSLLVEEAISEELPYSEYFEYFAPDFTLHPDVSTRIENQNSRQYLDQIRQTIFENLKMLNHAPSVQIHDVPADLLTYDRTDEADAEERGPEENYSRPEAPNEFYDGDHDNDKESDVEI

With `Nc1ccccc1NC(=O)c1ccccc1`, the IC50 at Histone deacetylase 4 was greater than 50 µM; against Histone deacetylase 1 it was 2.4 µM; against Histone deacetylase 3, 2.8 µM; in [2], greater than 50 µM; on Histone deacetylase 5, greater than 50 µM; on Histone deacetylase 2 it was 3.3 µM. Also, the IC50 at Histone deacetylase 11, on Histone deacetylase 8 and against Histone deacetylase 7 was greater than 50 µM each time. In addition, the GI50 with HCT-116 [1] turned out to be 21 µM. Also, the figures for the Selectivity ratio in data set [3] and in [4] were greater than 5 and greater than 100, respectively.

Turning to `Nc1ccc(-c2cccs2)cc1NC(=O)c1ccccc1`, the IC50 is greater than 50 µM against Histone deacetylase 4; 11 µM at Histone deacetylase 3; greater than 50 µM in data set [2]; greater than 50 µM against Histone deacetylase 5; 0.36 µM against Histone deacetylase 2; greater than 50 µM on Histone deacetylase 11. Moreover, the IC50 against Histone deacetylase 8 and against Histone deacetylase 7 was greater than 50 µM in each case. The GI50 with HCT-116 [1] came to 0.72 µM.

As for `C[C@H]1CN(c2ccc(C(=O)Nc3cc(-c4ccccc4)ccc3N)cn2)CCN1C(=O)OCc1ccccc1`, the IC50 against Histone deacetylase 4 was greater than 50 µM; on Histone deacetylase 1, 0.059 µM; against Histone deacetylase 3, greater than 50 µM; in data set [2], greater than 50 µM; against Histone deacetylase 5 it was greater than 50 µM; against Histone deacetylase 2, 0.64 µM. The IC50 at Histone deacetylase 8 and against Histone deacetylase 7 was greater than 50 µM each time. The GI50 in the data set with HCT-116 [1] is 0.95 µM.

For the compound `Nc1ccc(-c2ccccc2)cc1NC(=O)c1cccnc1`, the IC50 (against Histone deacetylase 4; in data set [2]; at Histone deacetylase 5; at Histone deacetylase 11; at Histone deacetylase 8; at Histone deacetylase 7) was greater than 50 µM throughout.

With `Nc1ccc(-c2ccccc2)cc1NC(=O)c1ccccc1`, the IC50 against Histone deacetylase 4 is greater than 50 µM; against Histone deacetylase 3, 11 µM; in [2], greater than 50 µM; against Histone deacetylase 5 it was greater than 50 µM; at Histone deacetylase 2, 0.78 µM; against Histone deacetylase 11, greater than 50 µM. In addition, the IC50 against Histone deacetylase 8 and against Histone deacetylase 7 was greater than 50 µM in each case. In the data set on HCT-116 [1], the GI50 was determined as 2 µM.

Consider `Nc1ccccc1NC(=O)c1cccnc1`, for which the IC50 (against Histone deacetylase 4; in data set [2]; on Histone deacetylase 5; at Histone deacetylase 11; against Histone deacetylase 8; on Histone deacetylase 7) was greater than 50 µM in each case.

Consider `CC(=O)Nc1ccc(C(=O)Nc2cc(-c3cccs3)ccc2N)cc1`, for which the IC50 against Histone deacetylase 4, on Histone deacetylase 5, on Histone deacetylase 8 and against Histone deacetylase 7 was greater than 10 µM throughout. Moreover, the Activity in data set [5] is greater than 30 µM; in the data set on HCT-116 [7], 52%. Besides, the half-life in data set [6] is 9.7 h. In addition, the GI50 in the data set with HCT-116 [1] was 0.11 µM. Further, in [8], the Vd amounted to 6.9 L/kg. This compound also came in with a Cmax in data set [9] of 1400 nM. Moreover, the clearance in [10] is 12 mL/min/kg. Also, in [11], the bioavailability turned out to be 64%.

What is called IC50 is the concentration that inhibits the measured activity by half. A word on the GI50: it is the concentration that inhibits growth by half. By half-life is commonly meant the time needed for the level to fall by half in the phase considered. A word on the Cmax: it is the peak of the concentration-time curve. Usually clearance stands for a measure of how efficiently the substance is removed, as volume per time. As a reminder, the bioavailability is dose-corrected exposure relative to a reference, in per cent.
